From patent publication US9779901B2, “High temperature material compositions for high temperature thermal cutoff devices” (Therm-O-Disc, Incorporated, priority 2008, dated 2017)
Counter-ions that a name gives are not always drawn.

settings: estimated melting point temperature ranges of candidate organic compounds (Table 2); some compounds have several values, partly in parentheses, because analytic techniques differ; cited from earlier work

| SMILES | Melting Point |
| --- | --- |
| CCCOc1ccccc1-c1nc2nn[nH]c2c(=O)[nH]1 [Example 1] | 241° ° C. |
| CCCN(CCC)CCc1cccc2c1CC(=O)N2 [Example 2] | 241-243° ° C. |
| Cl.c1ccc(N=C(Nc2ccccc2)Nc2ccccc2)cc1 [Example 3] | 241° ° C. |
| CN[C@H]1CC[C@@H](c2ccccc2)c2ccccc21 [Example 6] | 241-242° ° C. |
| Cc1ccc2cc3ccc(C)cc3cc2c1 [Example 7] | 241° ° C. |
| Nc1nnc(-c2ccccc2)o1 [Example 9] | 241-243° ° C. |
| O=C1C=CC=CC1=C1Nc2ccccc2N1 [Example 15] | 242° ° C. |
| C[C@]12CCC(=O)C[C@H]1CC[C@@H]1[C@@H]2CC[C@]2(C)[C@@H](c3ccc(=O)oc3)CC[C@]12O [Example 16] | 242-245° ° C. |
| N#CC(CCN1CCC(C(=O)ON2C(=O)CCC2=O)(c2ccccc2)CC1)(c1ccccc1)c1ccccc1 [Example 17] | 242-244° ° C. |
| CC1(C)Oc2ccc(C#N)cc2[C@@H](N2CCCC2=O)[C@@H]1O [Example 18] | 242-244° ° C. |
| O=C1C(=O)c2cccc3cccc1c23 [Example 27] | 243-245° ° C. |
| [H]/N=C(\N/C(=N/[H])Nc1ccc(Cl)cc1)NC(C)C [Example 30] | 244-245° ° C. |
| c1ccc(Nc2ccc(-c3ccc(Nc4ccccc4)cc3)cc2)cc1 [Example 32] | 244-245° ° C. |
| c1ccc2c(C(c3c[nH]c4ccccc34)c3c[nH]c4ccccc34)c[nH]c2c1 [Example 38] | 244-246° ° C. |
| NC(=O)c1cccc2nc3ccccc3nc12 [Example 42] | 245-246° ° C. |
| CN1C(=O)C(=NNC(N)=S)c2ccccc21 [Example 43] | 245° ° C. |
| CCC(N)Cc1cc(OC)c(C)cc1OC (centres unmarked) [Example 46] | 245-246.5° ° C. |
| O=C(Nc1ccccc1)Nc1ccccc1 [Example 49] | 246-248° ° C. |
| Cn1c(=S)c2c(ncn2C)n(C)c1=O [Example 52] | 246-247° ° C. |
| c1ccc(-c2c3ccccc3c(-c3ccccc3)c3ccccc23)cc1 [Example 54] | 246-248° ° C. |
| CC(C)c1nc2nc(N)nc(N)c2nc1C(C)C [Example 55] | 246° ° C. |

| SMILES | Melting Point |
| --- | --- |
| Nc1ccc(S(=O)(=O)Nc2cnc3ccccc3n2)cc1 [Example 58] | 247-248° ° C. |
| CCCC1C(=O)N2C(N(C)C)=Nc3ccc(C)cc3N2C1=O (centres unmarked) [Example 62] | 247-248° ° C. |
| Oc1nc2ccccc2nc1-c1ccccc1 [Example 64] | 247° ° C. |
| CC(=O)[C@H]1CC[C@H]2[C@@H]3CCc4cc(O)ccc4[C@H]3CC[C@]12C [Example 65] | 247-249° ° C. |
| O=c1ccc2[nH]cc(C3=CCNCC3)c2[nH]1 [Example 66] | 248° ° C. |
| Nc1cc(N)nc(N)n1 [Example 70] | 249-251° ° C. |
| COc1cccc2c1CCCC2N (centres unmarked) [Example 76] | 249-250° ° C. |
| Nc1nc(N)c2ccccc2n1 [Example 78] | 250-252° ° C. |
| Nc1ccc(N=Nc2ccc(N)cc2)cc1 [Example 81] | 250° ° C. |
| CN(C)c1ncnc2nc[nH]c12 [Example 89] | 251-253° ° C. |
| O=C(Nc1ccccc1)C(=O)Nc1ccccc1 [Example 91] | 252-254° ° C. |
| Cc1cc2cc3ccccc3cc2cc1C [Example 93] | 252° ° C. |
| Nc1cccc2c1C(=O)c1ccccc1C2=O [Example 96] | 253-254° ° C. |
| Nc1nc2ccc([N+](=O)[O-])cc2s1 [Example 97] | 253° ° C. |
| N#Cc1cncnc1N [Example 104] | 254-256° ° C. |
| O=C1C2C(c3ccccc3)NC(c3ccccc3)C1C(c1ccccc1)NC2c1ccccc1 (centres unmarked) [Example 106] | 255-256° ° C. |
| Nc1ccc2nc(N)nc(N)c2c1 [Example 109] | 255-258° ° C. |
| O=[N+]([O-])c1c2ccccc2c2ccc3cccc4ccc1c2c43 [Example 111] | 255-256° ° C. |
| Oc1cc(-c2ccccc2)nc2ccccc12 [Example 114] | 255-257° ° C. |
| c1cc(-c2sc(-c3ccncc3)c(-c3ccncc3)c2-c2ccncc2)ccn1 [Example 116] | 256-258° ° C. |
| Cn1c(=O)c(=O)n(C)c2ccccc21 [Example 120] | 256-258° ° C. |

| SMILES | Melting Point |
| --- | --- |
| O=C1C(=O)c2cccnc2-c2ncccc21 [Example 126] | 258° ° C. |
| NC1=CC(=O)c2ncccc2C1=O [Example 131] | 258-260° ° C. |
| Cc1ccc2c(c1)[nH]c1ccccc12 [Example 133] | 259° ° C. |
| Cc1cc(C)c(C#N)c(=S)[nH]1 [Example 134] | 259-260° ° C. |
| COc1nc(C)nc(N)n1 [Example 135] | 259-261° ° C. |
| OC1C2CC3CC(C2)CC1C3 (centres unmarked) [Example 140] | 260-265° ° C. |
| OCC(CO)(CO)CO [Example 144] | 260° ° C. |
| Oc1ccc2cccc(O)c2n1 [Example 146] | 260° ° C. |
| O=C1CN(N=C/C=C/c2ccc([N+](=O)[O-])o2)C(=O)N1 [Example 151] | 261° ° C. |
| COC(=O)c1cc2c(cn1)[nH]c1ccccc12 [Example 153] | 261-262° ° C. |
| N#Cc1cc(C#N)cc(C#N)c1 [Example 157] | 261-263° ° C. |
| Cc1ccc(NC(=O)Nc2ccc(C)cc2)cc1 [Example 167] | 262-263° ° C. |
| COc1ccc2nc(S)[nH]c2c1 [Example 170] | 263-264° ° C. |
| CC(=O)Oc1c(C)c(C)c2c(c1C)CCC(C)(CCN(C)C)O2 (centres unmarked) [Example 172] | 263-270° ° C. |
| NC1=CC(=O)c2cccnc2C1=O [Example 177] | 263° ° C. |
| Cn1c(=O)c2[nH]cnc2n(C)c1=O [Example 179] | 264° ° C. |
| CN/C(=N\c1ccc(C2=NNC(=O)CC2C)cc1)NC#N (centres unmarked) [Example 180] | 264-265° ° C. |
| C[C@]12CC[C@@H]3c4ccc(O)cc4C=C[C@H]3[C@@H]1CCC2=O [Example 186] | 264-265° ° C. |
| NC(=O)c1ccc(Oc2ccc(C(N)=O)cc2)cc1 [Example 193] | 265° ° C. |
| Cc1c(C)c2cccnc2c2ncccc12 [Example 195] | 265-266° ° C. |
| COc1ccc(-c2cc(=O)c3ccc(O)cc3o2)cc1 [Example 196] | 265-267° ° C. |

settings: not given

| SMILES | Melting Point [°C] |
| --- | --- |
| CN[C@H]1CC[C@@H](c2ccccc2)c2ccccc21 (as salt: hydrochloride) [Example 6] | 241 to 242 |
| N#CC(CCN1CCC(C(=O)ON2C(=O)CCC2=O)(c2ccccc2)CC1)(c1ccccc1)c1ccccc1 (as salt: hydrochloride) [Example 17] | 242 to 244 |
| CC1NCCc2c1[nH]c1cc(O)ccc21 (centres unmarked) (as salt: hydrochloride) [Example 100] | 254 to 255 |
| CC(=O)Oc1c(C)c(C)c2c(c1C)CCC(C)(CCN(C)C)O2 (centres unmarked) (as salt: hydrochloride) [Example 172] | 263 to 270 |
| CC(C)C(=O)OC1C[C@H]2CC[C@@H](C1)N2C (some centres unmarked) [Example 14] | 242 |
